Where “and” joins values, the source holds several entries; their conditions need not be identical. Equal entries are not always repeated. Inconclusive results and toxic doses are left out.
Tested on: BDF1 mice, B16 melanoma ip, median survival T/C
Assay: NCI In Vivo Anticancer Drug Screen. Data for tumor model B16 Melanoma (intraperitoneal) in B6D2F1 (BDF1) mice
Conditions: endpoint: median survival time, higher = longer survival
Outline: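 Mice with transplantable tumors; drug vs vehicle groups; endpoint survival or tumor size; value = T/C.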

[1] = dose: 25.0 mg/kg/injection, schedule: Q01DX009 (ip), vehicle: saline
[2] = dose: 50.0 mg/kg/injection, schedule: Q01DX009 (ip), vehicle: saline
[3] = dose: 100.0 mg/kg/injection, schedule: Q01DX009 (ip), vehicle: saline

With `CC[C@]12CN3CCc4c([nH]c5ccccc45)[C@@](C(=O)OC)(c4cc5c(cc4OC)N(C)[C@H]4[C@@](O)(C(=O)OC)[C@H](OC(C)=O)[C@]6(CC)C=CCN7CC[C@]54[C@@H]76)CC(C3)[C@H]1O2` (some centres not stated) as the compound, how does the T/C (dose: 0.05 mg/kg/injection, schedule: Q01DX009 (ip), vehicle: saline) read?
The T/C was 106 % of control.

And the T/C (dose: 0.1 mg/kg/injection, schedule: Q01DX009 (ip), vehicle: saline)?
The T/C was 101 % of control.

What about the T/C (dose: 0.2 mg/kg/injection, schedule: Q01DX009 (ip), vehicle: saline) of the same compound?
Its T/C is 97 % of control.

What about the T/C (dose: 0.4 mg/kg/injection, schedule: Q01DX009 (ip), vehicle: saline) of the same compound?
The T/C was 113 % of control.

What about the T/C (dose: 0.75 mg/kg/injection, schedule: Q01DX009 (ip), vehicle: Klucel (hydroxypropylcellulose) (HPC)) of the same compound?
The T/C was 107 % of control.

And the T/C (dose: 0.75 mg/kg/injection, schedule: Q01DX009 (ip), vehicle: saline)?
The T/C was 90 % of control.

What about the T/C (dose: 0.8 mg/kg/injection, schedule: Q01DX009 (ip), vehicle: saline) of the same compound?
The T/C was 116 % of control.

What about the T/C (dose: 1.5 mg/kg/injection, schedule: Q01DX009 (ip), vehicle: Klucel (hydroxypropylcellulose) (HPC)) of the same compound?
The T/C was 115 % of control.

What about the T/C (dose: 1.5 mg/kg/injection, schedule: Q04DX003 (ip), vehicle: saline) of the same compound?
The T/C was 102 % of control.

And the T/C (dose: 1.6 mg/kg/injection, schedule: Q01DX009 (ip), vehicle: saline)?
Its T/C is 113 % of control.

What about the T/C (dose: 3.0 mg/kg/injection, schedule: Q01DX009 (ip), vehicle: saline) of the same compound?
Its T/C is 187 % of control.

And the T/C (dose: 3.0 mg/kg/injection, schedule: Q04DX003 (ip), vehicle: saline)?
Its T/C is 111 % of control.

And the T/C (dose: 3.2 mg/kg/injection, schedule: Q01DX009 (ip), vehicle: saline)?
The T/C was 162 % of control.

What about the T/C (dose: 4.0 mg/kg/injection, schedule: Q01DX009 (ip), vehicle: saline) of the same compound?
Its T/C is 175 % of control and 202 % of control.

What about the T/C (dose: 6.0 mg/kg/injection, schedule: Q01DX009 (ip), vehicle: saline) of the same compound?
The T/C was 221 % of control [middle of 4 runs].

And the T/C (dose: 6.4 mg/kg/injection, schedule: Q01DX009 (ip), vehicle: saline)?
The T/C was 157 % of control.

And the T/C (dose: 9.0 mg/kg/injection, schedule: Q01DX009 (ip), vehicle: saline)?
The T/C was 212 % of control and 248 % of control.

What about the T/C (dose: 12.0 mg/kg/injection, schedule: Q01DX009 (ip), vehicle: Klucel (hydroxypropylcellulose) (HPC)) of the same compound?
The T/C was 168 % of control.

What about the T/C (dose: 12.0 mg/kg/injection, schedule: Q01DX009 (ip), vehicle: saline) of the same compound?
Its T/C is 161 % of control.

What about the T/C (dose: 12.0 mg/kg/injection, schedule: Q04DX003 (ip), vehicle: saline) of the same compound?
Its T/C is 152 % of control.

And the T/C (dose: 12.8 mg/kg/injection, schedule: Q01DX009 (ip), vehicle: saline)?
The T/C was 169 % of control.

`CCC(=O)NC(CC(C)C)C(=O)NC(CC(C)C)C(=O)NC(C=O)CCCN=C(N)N` (configuration not stated) (tested in a mixture with another compound) was tested. Which T/C (dose: 12.5 mg/kg/injection, schedule: Q01DX009 (ip), vehicle: saline) did it give?
The T/C was 100 % of control and 105 % of control.

What about the T/C [1] of the same compound?
Its T/C is 94 % of control and 105 % of control.

And the T/C [2]?
The T/C was 99 % of control and 105 % of control.

And the T/C [3]?
Its T/C is 108 % of control and 120 % of control.

Which results are given for `C(=C\c1cnc2ccccc2n1)/c1ccc2c(c1)OCO2`?
T/C (dose: 75.0 mg/kg/injection, schedule: Q01DX009 (ip), vehicle: Klucel (hydroxypropylcellulose) (HPC)): 105 % of control; T/C (dose: 150.0 mg/kg/injection, schedule: Q01DX009 (ip), vehicle: Klucel (hydroxypropylcellulose) (HPC)): 94 % of control

What does the source list for `NCCCOc1ccc([N+](=O)[O-])cc1Cl`?
T/C [1]: 104 % of control; T/C [2]: 104 % of control; T/C [3]: 102 % of control

`Cc1nc2c(=O)n(C)c(=O)n(C)c2n1C` was tested. Which T/C (dose: 50.0 mg/kg/injection, schedule: Q04DX003 (ip), vehicle: saline with Tween-80) did it give?
The T/C was 105 % of control.

And the T/C (dose: 100.0 mg/kg/injection, schedule: Q04DX003 (ip), vehicle: saline with Tween-80)?
The T/C was 105 % of control.

And the T/C (dose: 200.0 mg/kg/injection, schedule: Q04DX003 (ip), vehicle: saline with Tween-80)?
Its T/C is 105 % of control.

`N[C@@H](Cc1ccc(O)c(O)c1)C(=O)O` was tested. Which T/C [1] did it give?
Its T/C is 109 % of control.

And the T/C [2]?
The T/C was 98 % of control and 100 % of control.

What about the T/C [3] of the same compound?
The T/C was 102 % of control and 104 % of control.

And the T/C (dose: 200.0 mg/kg/injection, schedule: Q01DX009 (ip), vehicle: saline)?
Its T/C is 102 % of control and 108 % of control.

What about the T/C (dose: 400.0 mg/kg/injection, schedule: Q01DX009 (ip), vehicle: saline) of the same compound?
The T/C was 97 % of control and 104 % of control.

Which results are given for `CCNC(=O)OCc1c(COC(=O)NCC)c(-c2ccc(Cl)c(Cl)c2)n2c1CCC2`?
T/C (dose: 6.25 mg/kg/injection, schedule: Q01DX009 (ip), vehicle: saline with Tween-80): 122 % of control; T/C (dose: 25.0 mg/kg/injection, schedule: Q01DX009 (ip), vehicle: saline with Tween-80): 90 % of control

How did the T/C (dose: 75.0 mg/kg/injection, schedule: Q04DX003 (ip), vehicle: Klucel (hydroxypropylcellulose) (HPC)) turn out when `C=C(CCCCC)C(=O)/C=C/c1ccc(Cl)cc1` was run?
The T/C was 94 % of control.

What about the T/C (dose: 150.0 mg/kg/injection, schedule: Q04DX003 (ip), vehicle: Klucel (hydroxypropylcellulose) (HPC)) of the same compound?
The T/C was 94 % of control.

From PubChem BioAssay AID192 (DTP/NCI, 2004)
